The results in this text go back to ChEMBL document CHEMBL2380255, “Dual targeting of adenosine A(2A) receptors and monoamine oxidase B by 4H-3,1-benzothiazin-4-ones” (J Med Chem, 2013).

Some results are limits rather than exact numbers.

Series [1] deals with T1, Amine oxidase [flavin-containing] B (Rattus norvegicus, UniProt P19643).
T1 sequence (P19643 whole entry): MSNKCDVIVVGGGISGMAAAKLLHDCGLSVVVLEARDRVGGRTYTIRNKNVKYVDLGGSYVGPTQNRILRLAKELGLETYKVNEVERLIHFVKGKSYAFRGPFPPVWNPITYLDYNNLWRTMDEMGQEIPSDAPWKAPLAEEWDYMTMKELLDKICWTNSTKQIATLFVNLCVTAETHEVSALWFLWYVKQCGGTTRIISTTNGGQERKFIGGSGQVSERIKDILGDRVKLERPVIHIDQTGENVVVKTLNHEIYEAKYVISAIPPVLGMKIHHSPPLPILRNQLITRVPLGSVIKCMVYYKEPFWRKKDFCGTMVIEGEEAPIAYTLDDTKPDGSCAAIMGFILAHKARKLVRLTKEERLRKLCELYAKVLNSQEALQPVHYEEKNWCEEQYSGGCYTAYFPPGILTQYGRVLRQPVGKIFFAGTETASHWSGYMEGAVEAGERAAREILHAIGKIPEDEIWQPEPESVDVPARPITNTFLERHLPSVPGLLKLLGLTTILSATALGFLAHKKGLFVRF
Put plainly: Inhibition of MAO-B in mitochondria-enriched Sprague-Dawley rat liver fractions using p-tyramine as substrate incubated for 30 mins prior to substrate addition measured for 45 mins by amplex red reagent-based microplate fluorescence reader analysis.

The species named for series [2] is Homo sapiens. The series can be described thus: Selectivity ratio of Ki for human recombinant adenosine A2B receptor to Ki for human recombinant adenosine A2A receptor.
The next series concerns the target T2, Adenosine receptor A3 (Homo sapiens, UniProt P0DMS8).
T2 sequence (P0DMS8 whole entry): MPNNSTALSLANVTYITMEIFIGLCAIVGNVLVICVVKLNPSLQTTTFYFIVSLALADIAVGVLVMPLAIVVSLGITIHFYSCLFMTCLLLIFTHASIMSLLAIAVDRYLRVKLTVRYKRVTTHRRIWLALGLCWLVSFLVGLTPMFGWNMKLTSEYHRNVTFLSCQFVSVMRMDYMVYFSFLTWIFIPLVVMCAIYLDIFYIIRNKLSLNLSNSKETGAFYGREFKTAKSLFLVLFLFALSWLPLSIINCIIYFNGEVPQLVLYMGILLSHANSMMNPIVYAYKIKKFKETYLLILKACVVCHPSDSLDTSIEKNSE
The series can be described thus: Displacement of [3H]PSB-11 from human recombinant adenosine A3 receptor expressed in CHO cells after 60 mins by liquid scintillation counting analysis. The class given is cell-based.

Another series deals with T3, Adenosine receptor A2b (Homo sapiens, UniProt P29275).
T3 sequence (P29275 whole entry): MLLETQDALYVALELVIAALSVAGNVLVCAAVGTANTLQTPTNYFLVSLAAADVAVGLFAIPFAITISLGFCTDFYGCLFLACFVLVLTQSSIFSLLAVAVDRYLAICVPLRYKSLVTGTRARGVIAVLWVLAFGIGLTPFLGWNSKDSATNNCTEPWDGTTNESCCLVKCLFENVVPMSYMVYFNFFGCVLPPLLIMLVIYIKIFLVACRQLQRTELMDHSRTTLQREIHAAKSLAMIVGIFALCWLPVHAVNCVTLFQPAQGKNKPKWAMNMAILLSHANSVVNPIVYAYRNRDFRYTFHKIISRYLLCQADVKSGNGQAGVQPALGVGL
Put plainly: Displacement of [3H]PSB-603 from human recombinant adenosine A2B receptor expressed in CHO cells after 75 mins by liquid scintillation counting analysis. It counts as cell-based.

For series [3], the target named is T4, Amine oxidase [flavin-containing] B (Homo sapiens, UniProt P27338).
T4 sequence (P27338 whole entry): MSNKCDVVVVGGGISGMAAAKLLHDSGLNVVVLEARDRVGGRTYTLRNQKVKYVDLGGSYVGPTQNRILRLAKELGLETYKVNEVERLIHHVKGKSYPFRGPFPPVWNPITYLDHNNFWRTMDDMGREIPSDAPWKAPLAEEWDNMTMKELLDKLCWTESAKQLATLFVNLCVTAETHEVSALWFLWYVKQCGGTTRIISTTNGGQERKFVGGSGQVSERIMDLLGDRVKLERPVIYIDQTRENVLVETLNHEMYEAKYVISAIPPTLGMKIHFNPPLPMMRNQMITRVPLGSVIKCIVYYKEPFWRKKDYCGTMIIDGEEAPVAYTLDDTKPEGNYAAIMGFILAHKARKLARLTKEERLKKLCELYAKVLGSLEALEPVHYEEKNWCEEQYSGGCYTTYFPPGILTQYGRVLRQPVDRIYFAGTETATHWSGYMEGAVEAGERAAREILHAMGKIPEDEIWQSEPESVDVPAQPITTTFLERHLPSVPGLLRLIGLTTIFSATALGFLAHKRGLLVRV
The series can be described thus: Inhibition of recombinant human MAO-B expressed in baculovirus-infected insect cells using p-tyramine as substrate incubated for 30 mins prior to substrate addition measured for 45 mins by amplex red reagent-based microplate fluorescence reader analysis. It counts as cell-based.

Series [4] addresses Adenosine receptor A2a (Rattus norvegicus, UniProt P30543). Put plainly: Displacement of [3H]MSX2 from adenosine A2A receptor in rat brain striatal membranes after 30 mins by liquid scintillation counting analysis. It counts as cell membranes, Membrane.
In series [5] the target is Adenosine receptor A2a (Homo sapiens, UniProt P29274). Put plainly: Displacement of [3H]MSX2 from human recombinant adenosine A2A receptor expressed in CHO cells after 30 mins by liquid scintillation counting analysis. It counts as cell-based.
Series [6] addresses T5, Adenosine receptor A1 (Homo sapiens, UniProt P30542).
T5 sequence (P30542 whole entry): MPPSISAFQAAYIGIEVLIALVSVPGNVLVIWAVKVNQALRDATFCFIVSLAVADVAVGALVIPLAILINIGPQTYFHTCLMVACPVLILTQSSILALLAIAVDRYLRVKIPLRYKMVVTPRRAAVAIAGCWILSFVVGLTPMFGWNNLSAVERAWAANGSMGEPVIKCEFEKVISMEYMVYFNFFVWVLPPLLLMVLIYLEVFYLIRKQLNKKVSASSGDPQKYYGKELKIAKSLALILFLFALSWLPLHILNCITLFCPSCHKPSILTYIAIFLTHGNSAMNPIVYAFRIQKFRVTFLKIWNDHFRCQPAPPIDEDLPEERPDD
The series can be described thus: Displacement of [3H]CCPA from human recombinant adenosine A1 receptor expressed in CHO cells after 90 mins by liquid scintillation counting analysis. It counts as cell-based.

Series [7] addresses T6, Adenosine receptor A1 (Rattus norvegicus, UniProt P25099).
T6 sequence (P25099 whole entry): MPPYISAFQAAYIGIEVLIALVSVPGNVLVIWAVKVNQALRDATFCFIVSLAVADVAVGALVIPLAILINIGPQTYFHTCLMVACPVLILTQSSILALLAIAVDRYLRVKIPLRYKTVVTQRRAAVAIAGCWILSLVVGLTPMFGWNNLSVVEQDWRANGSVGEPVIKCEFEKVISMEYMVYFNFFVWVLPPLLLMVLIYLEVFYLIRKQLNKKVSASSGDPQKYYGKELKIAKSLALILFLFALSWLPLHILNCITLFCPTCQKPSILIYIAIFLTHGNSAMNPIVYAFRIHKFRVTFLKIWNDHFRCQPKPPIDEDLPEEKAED
The series can be described thus: Displacement of [3H]CCPA from adenosine A1 receptor in rat brain cortical membranes after 90 mins by liquid scintillation counting analysis. It counts as cell membranes, Membrane.

For series [8], the species on record is Homo sapiens. The series can be described thus: Selectivity ratio of Ki for human recombinant adenosine A3 receptor to Ki for human recombinant adenosine A2A receptor.
A short description of series [9]: Selectivity ratio of IC50 for MAO-B in mitochondria-enriched Sprague-Dawley rat liver fractions to IC50 for recombinant human MAO-B.
The species entered for series [10] is Homo sapiens. The series can be described thus: Selectivity ratio of Ki for human recombinant adenosine A1 receptor to Ki for human recombinant adenosine A2A receptor.
Series [11] has as its target T4, Amine oxidase [flavin-containing] B. Put plainly: Reversible inhibition of human MAO-B using p-tyramine as substrate at IC80 incubated for 22 mins followed by substrate addition measured for 5 hrs by fluorescence assay.

Chain of Adenosine receptor A2a (Rattus norvegicus, UniProt P30543) (P30543 whole entry): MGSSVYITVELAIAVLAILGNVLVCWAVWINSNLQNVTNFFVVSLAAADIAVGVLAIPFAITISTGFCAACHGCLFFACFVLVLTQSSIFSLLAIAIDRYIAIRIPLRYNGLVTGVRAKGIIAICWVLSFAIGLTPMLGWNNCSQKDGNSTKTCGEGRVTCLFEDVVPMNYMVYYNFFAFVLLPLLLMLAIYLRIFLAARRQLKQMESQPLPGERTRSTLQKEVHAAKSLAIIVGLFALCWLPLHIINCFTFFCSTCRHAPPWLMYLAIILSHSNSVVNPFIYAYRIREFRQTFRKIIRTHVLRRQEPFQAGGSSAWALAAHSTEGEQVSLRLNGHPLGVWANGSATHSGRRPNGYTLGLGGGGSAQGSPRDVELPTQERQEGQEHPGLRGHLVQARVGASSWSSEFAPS
Chain of Adenosine receptor A2a (Homo sapiens, UniProt P29274) (P29274 whole entry): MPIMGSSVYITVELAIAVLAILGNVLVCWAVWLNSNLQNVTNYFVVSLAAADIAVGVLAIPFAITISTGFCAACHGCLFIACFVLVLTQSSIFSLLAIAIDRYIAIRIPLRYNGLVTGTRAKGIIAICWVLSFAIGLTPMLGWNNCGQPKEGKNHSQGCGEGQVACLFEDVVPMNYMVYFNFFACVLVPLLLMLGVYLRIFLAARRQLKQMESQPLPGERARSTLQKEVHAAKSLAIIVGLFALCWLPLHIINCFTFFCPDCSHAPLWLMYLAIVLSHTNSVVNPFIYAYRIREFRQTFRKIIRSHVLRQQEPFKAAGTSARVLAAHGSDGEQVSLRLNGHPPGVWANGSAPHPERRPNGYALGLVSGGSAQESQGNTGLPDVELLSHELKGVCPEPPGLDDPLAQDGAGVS

`COc1cccc(/C=C/C(=O)Nc2nc3ccccc3c(=O)s2)c1`: the results for the IC50 in series [1] and in [3] were 281 nM and 470 nM, respectively. Also, the Ratio Ki in the series filed under Homo sapiens [2] was 10; in the series listed under Homo sapiens [8], more than 16. Also, the Ki is more than 1000 nM at Adenosine receptor A3; 679 nM at Adenosine receptor A2b; 253 nM on Adenosine receptor A2a [4]; 62.4 nM at Adenosine receptor A2a [5]; more than 10000 nM at Adenosine receptor A1 [6]; 205 nM on Adenosine receptor A1 [7].
Take `COc1cccc(CCCC(=O)Nc2nc3ccccc3c(=O)s2)c1`: the concentration for half-maximal inhibition (IC50) came out at 1300 nM in series [1] and 389 nM in series [3]. Also, the Ratio IC50 in series [9] stood at 1.4. In addition, the Ki stood at 382 nM on Adenosine receptor A3; 302 nM at Adenosine receptor A2b; 558 nM at Adenosine receptor A2a [4]; 115 nM on Adenosine receptor A2a [5]; 214 nM at Adenosine receptor A1 [6]; 22.5 nM at Adenosine receptor A1 [7].
For `O=C(C/C=C/c1ccccc1)Nc1nc2ccccc2c(=O)s1`, the IC50 in [1] amounted to 361 nM; in series [3], 39.8 nM. The Ratio IC50 in series [9] came to 1.4. In addition, the inhibitory constant (Ki) at Adenosine receptor A3 came out at 158 nM; at Adenosine receptor A2b it was 119 nM; on Adenosine receptor A2a [4] it was 814 nM; on Adenosine receptor A2a [5] it was 118 nM; on Adenosine receptor A1 [6] it was 822 nM; at Adenosine receptor A1 [7], 53 nM.
`O=C(CCc1ccccc1)Nc1nc2ccccc2c(=O)s1`: the concentration for half-maximal inhibition (IC50) in series [1] stood at 42.7 nM; in [3], 17.6 nM. Moreover, the Ratio IC50 in series [9] is 1.4. Moreover, the Ratio Ki in the series filed under Homo sapiens [2] was 5; in the series filed under Homo sapiens [10] it was 13; in the series filed under Homo sapiens [8] it was 5. Moreover, the Ki is 390 nM at Adenosine receptor A3; 365 nM at Adenosine receptor A2b; 103 nM at Adenosine receptor A2a [4]; 80.9 nM on Adenosine receptor A2a [5]; 1050 nM at Adenosine receptor A1 [6]; 422 nM on Adenosine receptor A1 [7]. The “inhibition (INH)” value in series [11] is “Active”.
In the case of `O=C(Nc1nc2ccccc2c(=O)s1)c1ccc(C(=O)N2CCN(Cc3ccccc3Cl)CC2)cc1`, in [9], the Ratio IC50 is 1.4. Also, the Ki on Adenosine receptor A3 was more than 1000 nM; on Adenosine receptor A2b it was more than 1000 nM; at Adenosine receptor A2a [4], more than 10000 nM; at Adenosine receptor A2a [5], more than 1000 nM; on Adenosine receptor A1 [6] it was more than 1000 nM. Moreover, the half-inhibitory concentration (IC50) in [3] is more than 10000 nM.
For the molecule `COCCOc1ccc(N2CCN(CCn3ncc4c3nc(N)n3nc(-c5ccco5)nc43)CC2)cc1` [PRELADENANT], the inhibition constant Ki at Adenosine receptor A3 was more than 1000 nM; on Adenosine receptor A2b, more than 1000 nM; on Adenosine receptor A2a [4], 0.66 nM; at Adenosine receptor A2a [5], 0.884 nM; at Adenosine receptor A1 [6], 295 nM; on Adenosine receptor A1 [7], 68.7 nM.
Take `O=C(CCCc1ccccc1)Nc1nc2sccc2c(=O)s1`: the 50% inhibitory concentration (IC50) was 291 nM in series [1] and 69.7 nM in series [3]. The Ratio IC50 in [9] came out at 1.4. Further, the figures for the Ratio Ki in the series filed under Homo sapiens [2], in the series listed under Homo sapiens [10] and in the series filed under Homo sapiens [8] were 4, 4 and 12, respectively. Further, the inhibitory constant (Ki) at Adenosine receptor A3 was more than 1000 nM; at Adenosine receptor A2b, 361 nM; on Adenosine receptor A2a [4] it was 693 nM; on Adenosine receptor A2a [5] it was 82.5 nM; on Adenosine receptor A1 [6] it was 364 nM; at Adenosine receptor A1 [7] it was 35.2 nM. Further, the “inhibition (INH)” value in [11] was “Active”.
Turning to `O=C(Nc1nc2ccccc2c(=O)s1)c1ccc(C(=O)N2CCN(Cc3ccc(Cl)cc3)CC2)cc1`, the Ratio IC50 in [9] came to 1.4. The Ratio Ki was more than 22 in the series listed under Homo sapiens [2], 100 in the series filed under Homo sapiens [10] and more than 22 in the series filed under Homo sapiens [8]. Also, the inhibition constant (Ki) on Adenosine receptor A3 was more than 1000 nM; on Adenosine receptor A2b, more than 1000 nM; on Adenosine receptor A2a [4] it was 488 nM; at Adenosine receptor A2a [5], 44.3 nM; at Adenosine receptor A1 [6], 4370 nM. For the same molecule, the IC50 in [3] is more than 10000 nM.
Molecule `C[C@H](NCc1ccc(OCc2cccc(F)c2)cc1)C(N)=O` [SAFINAMIDE] displayed an IC50 in [1] of 25.8 nM. For the same molecule, the “inhibition (INH)” value in series [11] was “Active”.
